Assay results as given in the kinase profiling compilation of Christmann-Franck et al. (2016).

Columns and labels:
Experiment in all cases: KINOMEscan competition binding
Settings in all cases: compound 1.0 µM
[1] = molecular target: AKT3 (human) (UniProt Q9Y243)
[2] = molecular target: AXL (human) (UniProt P30530)
[3] = molecular target: BUB1 (human) (UniProt O43683)
[4] = molecular target: CAMK2G (human) (UniProt Q13555)
[5] = molecular target: CDK11B (human) (UniProt P21127)
[6] = molecular target: CDK5 (human) (UniProt Q00535)
[7] = molecular target: CDK8 (human) (UniProt P49336)
[8] = molecular target: CSK (human) (UniProt P41240)
[9] = molecular target: DDR1 (human) (UniProt Q08345)
[10] = molecular target: FRK (human) (UniProt P42685)
[11] = molecular target: GAK (human) (UniProt O14976)
GAK (human), sequence (O14976 whole entry, looked up): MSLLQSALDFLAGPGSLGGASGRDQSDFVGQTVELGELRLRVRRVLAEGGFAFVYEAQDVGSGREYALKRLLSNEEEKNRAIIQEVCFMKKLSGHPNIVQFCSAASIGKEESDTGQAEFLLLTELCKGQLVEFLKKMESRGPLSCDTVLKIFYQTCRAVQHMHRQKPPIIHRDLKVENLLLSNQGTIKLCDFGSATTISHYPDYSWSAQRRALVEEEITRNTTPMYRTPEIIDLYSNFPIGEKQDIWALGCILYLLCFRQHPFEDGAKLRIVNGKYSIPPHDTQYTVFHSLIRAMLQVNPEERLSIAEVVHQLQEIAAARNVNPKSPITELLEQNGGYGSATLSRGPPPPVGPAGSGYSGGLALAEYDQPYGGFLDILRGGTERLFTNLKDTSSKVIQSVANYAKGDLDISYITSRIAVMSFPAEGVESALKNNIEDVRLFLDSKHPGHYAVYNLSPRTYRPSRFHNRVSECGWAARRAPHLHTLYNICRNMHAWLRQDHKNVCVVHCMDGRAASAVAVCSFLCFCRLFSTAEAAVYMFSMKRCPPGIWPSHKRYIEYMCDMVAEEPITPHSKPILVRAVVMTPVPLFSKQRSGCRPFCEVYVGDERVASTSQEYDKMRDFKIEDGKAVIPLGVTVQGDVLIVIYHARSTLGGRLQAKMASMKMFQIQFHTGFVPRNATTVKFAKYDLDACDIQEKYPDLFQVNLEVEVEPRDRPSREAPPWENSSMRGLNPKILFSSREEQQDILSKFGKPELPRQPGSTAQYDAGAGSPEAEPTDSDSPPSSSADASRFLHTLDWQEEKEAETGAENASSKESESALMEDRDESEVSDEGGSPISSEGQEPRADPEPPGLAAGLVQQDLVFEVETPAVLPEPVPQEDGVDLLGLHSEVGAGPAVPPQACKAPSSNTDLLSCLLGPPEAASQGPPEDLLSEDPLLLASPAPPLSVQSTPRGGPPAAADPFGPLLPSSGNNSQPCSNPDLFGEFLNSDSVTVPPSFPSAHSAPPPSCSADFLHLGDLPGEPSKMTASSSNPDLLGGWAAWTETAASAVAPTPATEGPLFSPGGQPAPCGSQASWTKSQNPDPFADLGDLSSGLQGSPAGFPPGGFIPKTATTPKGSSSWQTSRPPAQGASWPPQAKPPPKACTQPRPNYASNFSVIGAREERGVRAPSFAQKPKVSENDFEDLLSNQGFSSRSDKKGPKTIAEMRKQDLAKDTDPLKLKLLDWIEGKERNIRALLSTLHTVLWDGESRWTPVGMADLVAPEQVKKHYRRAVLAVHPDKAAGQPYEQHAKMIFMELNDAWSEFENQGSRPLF

[12] = molecular target: GSG2 (human) (UniProt Q8TF76)
[13] = molecular target: LCK (human) (UniProt P06239)
[14] = molecular target: LTK (human) (UniProt P29376)
[15] = molecular target: MAP3K1 (human) (UniProt Q13233)
[16] = molecular target: MATK (human) (UniProt P42679)
[17] = molecular target: MKNK2 (human) (UniProt Q9HBH9)
[18] = molecular target: MLTK (human) (UniProt Q9NYL2)
[19] = molecular target: MYLK3 (human) (UniProt Q32MK0)
[20] = molecular target: NEK5 (human) (UniProt Q6P3R8)
[21] = molecular target: NEK9 (human) (UniProt Q8TD19)
[22] = molecular target: NTRK1 (human) (UniProt P04629)
[23] = molecular target: NTRK3 (human) (UniProt Q16288)
[24] = molecular target: PAK1 (human) (UniProt Q13153)
[25] = molecular target: PAK4 (human) (UniProt O96013)
[26] = molecular target: PAK7 (human) (UniProt Q9P286)
PAK7 (human), sequence (Q9P286 whole entry, looked up): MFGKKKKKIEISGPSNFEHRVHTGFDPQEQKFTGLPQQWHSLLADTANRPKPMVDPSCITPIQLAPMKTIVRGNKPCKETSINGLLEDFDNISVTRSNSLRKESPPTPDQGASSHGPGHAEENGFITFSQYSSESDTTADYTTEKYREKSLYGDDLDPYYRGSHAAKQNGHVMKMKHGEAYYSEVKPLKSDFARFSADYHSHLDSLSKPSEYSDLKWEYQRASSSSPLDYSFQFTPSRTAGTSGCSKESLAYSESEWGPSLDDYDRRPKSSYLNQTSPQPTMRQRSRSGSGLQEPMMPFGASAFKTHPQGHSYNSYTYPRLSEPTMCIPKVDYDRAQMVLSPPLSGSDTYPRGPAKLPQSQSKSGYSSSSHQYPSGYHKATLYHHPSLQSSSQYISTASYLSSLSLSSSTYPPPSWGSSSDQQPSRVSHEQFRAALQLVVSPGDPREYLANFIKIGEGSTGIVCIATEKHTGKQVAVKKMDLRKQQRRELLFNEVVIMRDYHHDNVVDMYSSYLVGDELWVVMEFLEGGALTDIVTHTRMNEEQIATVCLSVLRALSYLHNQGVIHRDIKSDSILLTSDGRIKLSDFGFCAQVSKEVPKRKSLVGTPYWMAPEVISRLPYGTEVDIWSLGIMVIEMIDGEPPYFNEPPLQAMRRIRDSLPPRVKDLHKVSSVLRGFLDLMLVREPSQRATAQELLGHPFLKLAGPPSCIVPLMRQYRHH

[27] = molecular target: PDPK1 (human) (UniProt O15530)
PDPK1 (human), sequence (O15530 whole entry, looked up): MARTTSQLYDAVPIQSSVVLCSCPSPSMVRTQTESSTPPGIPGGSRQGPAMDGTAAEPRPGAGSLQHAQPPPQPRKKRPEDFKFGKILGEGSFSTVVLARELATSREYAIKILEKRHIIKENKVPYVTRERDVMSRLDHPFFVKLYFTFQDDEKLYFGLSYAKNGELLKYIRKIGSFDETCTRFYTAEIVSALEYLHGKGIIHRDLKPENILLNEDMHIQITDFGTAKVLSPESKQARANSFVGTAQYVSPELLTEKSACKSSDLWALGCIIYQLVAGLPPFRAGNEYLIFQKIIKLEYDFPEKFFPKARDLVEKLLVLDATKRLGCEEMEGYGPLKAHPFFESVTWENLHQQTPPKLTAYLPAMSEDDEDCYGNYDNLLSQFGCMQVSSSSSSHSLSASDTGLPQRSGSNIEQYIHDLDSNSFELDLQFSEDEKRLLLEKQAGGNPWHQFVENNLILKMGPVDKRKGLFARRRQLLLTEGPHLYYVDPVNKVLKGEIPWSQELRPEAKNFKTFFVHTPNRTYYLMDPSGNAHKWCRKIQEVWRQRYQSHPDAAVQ

[28] = molecular target: PIK3C2G (human) (UniProt O75747)
[29] = system: PIK3CA (human), P42336 [M1043I]
PIK3CA (human), P42336 [M1043I], sequence (P42336 whole entry M1043I, looked up): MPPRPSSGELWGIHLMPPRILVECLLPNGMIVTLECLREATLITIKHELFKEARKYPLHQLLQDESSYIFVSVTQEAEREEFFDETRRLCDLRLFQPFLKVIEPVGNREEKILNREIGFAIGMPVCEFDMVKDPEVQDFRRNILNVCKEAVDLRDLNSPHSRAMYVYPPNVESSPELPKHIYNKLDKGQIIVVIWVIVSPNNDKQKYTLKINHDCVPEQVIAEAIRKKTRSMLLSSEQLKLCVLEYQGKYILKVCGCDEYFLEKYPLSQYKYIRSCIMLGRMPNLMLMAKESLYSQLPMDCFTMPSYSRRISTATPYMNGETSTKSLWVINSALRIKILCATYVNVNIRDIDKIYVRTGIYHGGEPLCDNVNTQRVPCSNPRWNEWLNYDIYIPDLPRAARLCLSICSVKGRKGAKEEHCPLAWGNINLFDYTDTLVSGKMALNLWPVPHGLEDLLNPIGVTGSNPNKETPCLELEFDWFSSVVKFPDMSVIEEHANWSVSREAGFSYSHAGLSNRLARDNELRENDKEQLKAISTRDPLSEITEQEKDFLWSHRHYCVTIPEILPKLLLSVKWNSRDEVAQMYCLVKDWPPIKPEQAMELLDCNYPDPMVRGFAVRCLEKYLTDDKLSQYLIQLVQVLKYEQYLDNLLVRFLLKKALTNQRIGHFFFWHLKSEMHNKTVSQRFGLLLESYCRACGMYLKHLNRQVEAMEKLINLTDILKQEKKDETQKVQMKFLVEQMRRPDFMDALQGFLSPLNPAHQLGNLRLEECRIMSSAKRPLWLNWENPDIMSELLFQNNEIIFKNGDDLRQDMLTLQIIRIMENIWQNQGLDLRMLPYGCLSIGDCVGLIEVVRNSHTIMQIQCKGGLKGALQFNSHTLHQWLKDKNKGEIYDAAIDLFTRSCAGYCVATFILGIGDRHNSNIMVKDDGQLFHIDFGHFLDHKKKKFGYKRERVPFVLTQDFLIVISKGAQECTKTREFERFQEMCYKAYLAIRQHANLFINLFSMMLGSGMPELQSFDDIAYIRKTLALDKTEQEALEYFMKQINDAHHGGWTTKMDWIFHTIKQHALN

[30] = molecular target: PIM1 (human) (UniProt P11309)
[31] = molecular target: PIM3 (human) (UniProt Q86V86)
[32] = molecular target: PRKX (human) (UniProt P51817)
[33] = molecular target: PTK6 (human) (UniProt Q13882)
[34] = molecular target: RPS6KA6 KD1 (human) (UniProt Q9UK32)
[35] = molecular target: SGK110 (human) (UniProt P0C264)
[36] = molecular target: SYK (human) (UniProt P43405)
[37] = molecular target: TLK1 (human) (UniProt Q9UKI8)
[38] = molecular target: TYRO3 (human) (UniProt Q06418)
[39] = molecular target: YES1 (human) (UniProt P07947)
YES1 (human), sequence (P07947 whole entry, looked up): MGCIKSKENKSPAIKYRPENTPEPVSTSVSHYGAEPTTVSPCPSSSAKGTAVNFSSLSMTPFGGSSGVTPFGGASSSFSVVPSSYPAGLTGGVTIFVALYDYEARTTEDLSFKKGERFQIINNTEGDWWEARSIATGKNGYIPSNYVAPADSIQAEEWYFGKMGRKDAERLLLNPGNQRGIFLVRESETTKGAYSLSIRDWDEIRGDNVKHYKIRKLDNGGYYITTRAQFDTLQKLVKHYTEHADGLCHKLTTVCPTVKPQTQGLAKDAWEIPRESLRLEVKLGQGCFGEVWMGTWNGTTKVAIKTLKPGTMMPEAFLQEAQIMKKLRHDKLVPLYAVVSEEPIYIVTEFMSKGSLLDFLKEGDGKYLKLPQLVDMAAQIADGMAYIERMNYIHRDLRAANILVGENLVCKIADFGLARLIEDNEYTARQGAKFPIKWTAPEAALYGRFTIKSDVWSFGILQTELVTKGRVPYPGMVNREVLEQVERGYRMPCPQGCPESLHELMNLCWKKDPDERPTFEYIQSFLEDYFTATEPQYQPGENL

CDK11B (human), sequence (P21127 whole entry, looked up): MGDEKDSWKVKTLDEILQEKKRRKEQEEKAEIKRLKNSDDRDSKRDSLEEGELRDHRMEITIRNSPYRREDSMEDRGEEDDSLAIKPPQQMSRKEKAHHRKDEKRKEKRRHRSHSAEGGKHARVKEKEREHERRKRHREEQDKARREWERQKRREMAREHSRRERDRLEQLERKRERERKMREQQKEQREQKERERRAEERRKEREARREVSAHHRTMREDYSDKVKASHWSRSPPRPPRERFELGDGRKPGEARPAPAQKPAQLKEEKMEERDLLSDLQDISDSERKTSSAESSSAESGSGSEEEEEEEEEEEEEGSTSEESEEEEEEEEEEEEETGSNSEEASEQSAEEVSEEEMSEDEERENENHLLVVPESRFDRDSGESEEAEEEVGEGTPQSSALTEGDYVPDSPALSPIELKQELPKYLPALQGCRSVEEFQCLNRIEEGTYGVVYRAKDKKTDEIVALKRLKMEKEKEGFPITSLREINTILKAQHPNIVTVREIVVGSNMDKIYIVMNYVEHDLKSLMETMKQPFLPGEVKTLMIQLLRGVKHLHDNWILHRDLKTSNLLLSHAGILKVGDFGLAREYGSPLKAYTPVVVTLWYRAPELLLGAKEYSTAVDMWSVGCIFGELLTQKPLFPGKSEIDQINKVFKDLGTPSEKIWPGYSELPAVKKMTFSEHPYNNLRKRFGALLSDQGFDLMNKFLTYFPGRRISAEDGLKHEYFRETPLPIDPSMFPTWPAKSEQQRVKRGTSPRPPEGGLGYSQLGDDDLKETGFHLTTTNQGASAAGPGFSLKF

Work on `CNc1nc(Nc2ccc(C(=O)N3CCOCC3)cc2OC)ncc1Cl` yielded a kinase still bound, per cent of control [1] of 81%, a kinase still bound, per cent of control [2] of 97% and a kinase still bound, per cent of control [3] of 100%. The kinase still bound, per cent of control [4] was 93%, the residual activity [5] was 100% and the residual activity [6] was 100%. For the same molecule, the residual activity [7] was 100%, the kinase still bound, per cent of control [8] was 100% and the kinase still bound, per cent of control [9] was 100%. For the same molecule, the kinase still bound, per cent of control [10] was 63%, the kinase still bound, per cent of control [11] was 25% and the kinase still bound, per cent of control [12] was 74%. The kinase still bound, per cent of control [13] was 100%, the kinase still bound, per cent of control [14] was 50% and the kinase still bound, per cent of control [15] was 65%. It also gave a kinase still bound, per cent of control [16] of 100%, a kinase still bound, per cent of control [17] of 14% and a kinase still bound, per cent of control [18] of 100%. It also gave a kinase still bound, per cent of control [19] of 100%, a kinase still bound, per cent of control [20] of 100% and a kinase still bound, per cent of control [21] of 93%. For the same molecule, the kinase still bound, per cent of control [22] was 99%, the kinase still bound, per cent of control [23] was 100% and the kinase still bound, per cent of control [24] was 100%. It also gave a kinase still bound, per cent of control [25] of 100%, a kinase still bound, per cent of control [26] of 62% and a kinase still bound, per cent of control [27] of 95%. For the same molecule, the kinase still bound, per cent of control [28] was 71%, the kinase still bound, per cent of control [29] was 93% and the kinase still bound, per cent of control [30] was 100%. The kinase still bound, per cent of control [31] was 100%, the kinase still bound, per cent of control [32] was 99% and the kinase still bound, per cent of control [33] was 47%. The kinase still bound, per cent of control [34] was 100%, the kinase still bound, per cent of control [35] was 100% and the kinase still bound, per cent of control [36] was 100%. The kinase still bound, per cent of control [37] was 93%, the kinase still bound, per cent of control [38] was 100% and the kinase still bound, per cent of control [39] was 100%.
